From the NIST ThermoML archive (doi:10.1016/j.jct.2017.02.024)
± gives the expanded uncertainty stated by the source.

Experiment: mn = molality of the nth substance listed, in mol/kg
Conditions: 100 kPa, Liquid; for viscosity: Capillary tube (Ostwald / Ubbelohde) method; for mass density: Vibrating tube method

C[C@H](N)C(=O)O [(S)-2-aminopropanoic acid] + O
Conditions	mass density, 293.15 K [kg/m3]	mass density, 303.15 K [kg/m3]	mass density, 313.15 K [kg/m3]	mass density, 323.15 K [kg/m3]	viscosity, 293.15 K [mPa·s]	viscosity, 303.15 K [mPa·s]	viscosity, 313.15 K [mPa·s]	viscosity, 323.15 K [mPa·s]
m1 = 0.1	1001.06 ± 1.4	998.5 ± 1.4	995.04 ± 1.4	990.8 ± 1.4	1.027 ± 0.042	0.817 ± 0.033	0.669 ± 0.027	0.559 ± 0.023
m1 = 0.2	1003.89 ± 1.4	1001.29 ± 1.4	997.81 ± 1.4	993.55 ± 1.4	1.053 ± 0.043	0.837 ± 0.034	0.684 ± 0.028	0.571 ± 0.023
m1 = 0.3	1006.66 ± 1.4	1004.03 ± 1.4	1000.5 ± 1.4	996.24 ± 1.4	1.079 ± 0.044	0.857 ± 0.035	0.7 ± 0.028	0.584 ± 0.024
m1 = 0.4	–	–	–	–	1.106 ± 0.045	0.878 ± 0.036	0.716 ± 0.029	0.597 ± 0.024
m1 = 0.401	1009.41 ± 1.4	1006.73 ± 1.4	1003.18 ± 1.4	998.9 ± 1.4	–	–	–	–
m1 = 0.5	1012.07 ± 1.4	1009.37 ± 1.4	1005.79 ± 1.4	1001.49 ± 1.4	1.134 ± 0.046	0.898 ± 0.036	0.733 ± 0.03	0.611 ± 0.025
m1 = 0.6	1014.71 ± 1.4	1011.97 ± 1.4	1008.36 ± 1.4	1004.08 ± 1.4	1.163 ± 0.047	0.921 ± 0.037	0.751 ± 0.03	0.624 ± 0.025
m1 = 0.7	1017.29 ± 1.4	1014.52 ± 1.4	1010.9 ± 1.4	1006.6 ± 1.4	1.193 ± 0.048	0.943 ± 0.038	0.768 ± 0.031	0.638 ± 0.026

C[C@@H](O)[C@H](N)C(=O)O [L-threonine] + O
Conditions	mass density, 293.15 K [kg/m3]	mass density, 303.15 K [kg/m3]	mass density, 313.15 K [kg/m3]	mass density, 323.15 K [kg/m3]	viscosity, 293.15 K [mPa·s]	viscosity, 303.15 K [mPa·s]	viscosity, 313.15 K [mPa·s]	viscosity, 323.15 K [mPa·s]
m1 = 0.1	1002.4 ± 1.4	999.82 ± 1.4	996.36 ± 1.4	992.09 ± 1.4	1.035 ± 0.042	0.823 ± 0.033	0.673 ± 0.027	0.563 ± 0.023
m1 = 0.2	1006.54 ± 1.4	1003.91 ± 1.4	1000.4 ± 1.4	996.09 ± 1.4	1.07 ± 0.043	0.85 ± 0.034	0.694 ± 0.028	0.579 ± 0.023
m1 = 0.3	1010.59 ± 1.4	1007.91 ± 1.4	1004.35 ± 1.4	1000.01 ± 1.4	1.105 ± 0.045	0.878 ± 0.036	0.717 ± 0.029	0.596 ± 0.024
m1 = 0.4	1014.57 ± 1.4	1011.83 ± 1.4	1008.22 ± 1.4	1003.85 ± 1.4	1.143 ± 0.046	0.907 ± 0.037	0.739 ± 0.03	0.615 ± 0.025
m1 = 0.5	1018.46 ± 1.4	1015.67 ± 1.4	1012.03 ± 1.4	1007.62 ± 1.4	1.182 ± 0.048	0.936 ± 0.038	0.763 ± 0.031	0.632 ± 0.026
m1 = 0.6	1022.28 ± 1.4	1019.43 ± 1.4	1015.75 ± 1.4	1011.32 ± 1.4	1.221 ± 0.049	0.967 ± 0.039	0.787 ± 0.032	0.651 ± 0.026
m1 = 0.7	1026.03 ± 1.4	1023.14 ± 1.4	1019.41 ± 1.4	1014.96 ± 1.4	1.263 ± 0.051	0.999 ± 0.04	0.811 ± 0.033	0.67 ± 0.027

O [water] + C[C@@H](O)[C@H](N)C(=O)O
m2 = 0
Conditions	mass density [kg/m3]	viscosity [mPa·s]
293.15 K	–	1.002 ± 0.041
303.15 K	–	0.798 ± 0.032
313.15 K	–	0.654 ± 0.026
323.15 K	988.02 ± 1.4	0.547 ± 0.022

O [water] + C[C@H](N)C(=O)O
m2 = 0
Conditions	mass density [kg/m3]	viscosity [mPa·s]
293.15 K	–	1.002 ± 0.041
303.15 K	–	0.798 ± 0.032
313.15 K	–	0.654 ± 0.026
323.15 K	988.02 ± 1.4	0.547 ± 0.022

CC(C)[C@H](N)C(=O)O [L-valine] + O
Conditions	mass density, 293.15 K [kg/m3]	mass density, 303.15 K [kg/m3]	mass density, 313.15 K [kg/m3]	mass density, 323.15 K [kg/m3]	viscosity, 293.15 K [mPa·s]	viscosity, 303.15 K [mPa·s]	viscosity, 313.15 K [mPa·s]	viscosity, 323.15 K [mPa·s]
m1 = 0.1	1000.87 ± 1.4	998.32 ± 1.4	994.85 ± 1.4	990.59 ± 1.4	1.044 ± 0.042	0.83 ± 0.034	0.678 ± 0.027	0.567 ± 0.023
m1 = 0.2	1003.5 ± 1.4	1000.9 ± 1.4	997.4 ± 1.4	993.09 ± 1.4	1.088 ± 0.044	0.864 ± 0.035	0.704 ± 0.029	0.587 ± 0.024
m1 = 0.3	1006.05 ± 1.4	1003.43 ± 1.4	999.89 ± 1.4	995.54 ± 1.4	1.134 ± 0.046	0.899 ± 0.036	0.731 ± 0.03	0.608 ± 0.025
m1 = 0.4	1008.55 ± 1.4	1005.9 ± 1.4	1002.34 ± 1.4	997.95 ± 1.4	1.183 ± 0.048	0.936 ± 0.038	0.76 ± 0.031	0.63 ± 0.026
